From ChEMBL document CHEMBL5096190, “Recent advances of quinones as a privileged structure in drug discovery” (Eur J Med Chem, 2021)
pIC50, pKd: −log10 of the molar value. Converted amounts (≈) assume the structure as drawn. Blank lines part the entries; values can stand above or below the compound they belong to.

Tests used:
[1] = test system: GBM; assay: Anticancer activity against human GBM cells assessed as cell growth inhibition incubated for 72 hrs; assay type: functional, cell-based
[2] = target: T1, Arylsulfatase A (Homo sapiens, UniProt P15289); assay: Inhibition of ARSA (unknown origin) using 4-methylumbelliferyl sulfate (4-MUS) as a substrate by fluorescent assay
T1 sequence (P15289 whole entry): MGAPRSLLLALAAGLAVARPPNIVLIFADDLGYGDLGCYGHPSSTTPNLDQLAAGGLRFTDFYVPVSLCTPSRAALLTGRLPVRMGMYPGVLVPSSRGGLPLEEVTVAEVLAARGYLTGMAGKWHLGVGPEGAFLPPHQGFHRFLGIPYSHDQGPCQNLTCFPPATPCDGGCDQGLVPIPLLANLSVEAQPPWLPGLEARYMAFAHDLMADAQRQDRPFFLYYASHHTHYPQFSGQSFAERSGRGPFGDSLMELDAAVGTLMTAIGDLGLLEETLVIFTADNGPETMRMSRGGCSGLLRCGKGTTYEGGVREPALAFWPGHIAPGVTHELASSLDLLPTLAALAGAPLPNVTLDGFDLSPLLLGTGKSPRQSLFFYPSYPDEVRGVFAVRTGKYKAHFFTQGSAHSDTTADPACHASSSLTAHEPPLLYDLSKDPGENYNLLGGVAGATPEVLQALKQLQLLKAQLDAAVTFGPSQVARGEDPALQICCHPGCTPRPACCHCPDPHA

[3] = target: T1, Arylsulfatase A; assay: Binding affinity to ARSA (unknown origin) assessed as dissociation constant by SPR analysis
[4] = Inhibition of Hepatitis C virus NS3 helicase measured by fluorescence helicase assay; set-up: species or system Hepacivirus hominis
[5] = test system: Enterococcus hirae; assay: Antibacterial activity against Enterococcus hirae ATCC 10541 assessed as growth inhibition after 24 hrs by two-fold serial dilution method; assay type: functional
[6] = test system: U-87 MG; assay: Cytotoxicity against human U87 cells assessed as reduction in cell viability measured after 72 hrs by MTT assay; assay type: functional, cell-based, U-87MG ATCC
[7] = test system: SGC-7901; assay: Cytotoxicity against human SGC-7901 cells assessed as reduction in cell viability measured after 72 hrs by MTT assay; assay type: functional, cell-based; settings: SGC-7901, 72 h
[8] = test system: MGC-803; assay: Cytotoxicity against human MGC-803 cells assessed as reduction in cell viability measured after 72 hrs by MTT assay; assay type: functional, cell-based; settings: MGC-803, 72 h
[9] = Inhibition of NFAT activity in human GBM cells; assay type: cell-based
[10] = test system: BXPC-3; assay: Antitumor activity against human BXPC-3 cells assessed as reduction in cell viability and incubated for 3 hrs by MTT assay; assay type: functional, cell-based; settings: BXPC-3, 3 h
[11] = test system: PANC-1; assay: Antitumor activity against human PANC-1 cells assessed as reduction in cell viability and incubated for 3 hrs by MTT assay; assay type: functional, cell-based; settings: PANC-1, 3 h
[12] = test system: MIA PaCa-2; assay: Antitumor activity against human MIA PaCa-2 cells assessed as reduction in cell viability and incubated for 3 hrs by MTT assay; assay type: functional, cell-based; settings: MIA PaCa-2, 3 h
[13] = target: Cholinesterase (Homo sapiens, UniProt P06276); assay: Inhibition of human BuChE at 550 uM using butyrylthiocholine chloride as substrate by Ellman's method
[14] = test system: MOLT-4; assay: Cytotoxicity against human MOLT-4 cells assessed as inhibition of cell growth incubated for 24 to 72 hrs by MTT assay; assay type: functional, cell-based

Chain of Cholinesterase (P06276 whole entry): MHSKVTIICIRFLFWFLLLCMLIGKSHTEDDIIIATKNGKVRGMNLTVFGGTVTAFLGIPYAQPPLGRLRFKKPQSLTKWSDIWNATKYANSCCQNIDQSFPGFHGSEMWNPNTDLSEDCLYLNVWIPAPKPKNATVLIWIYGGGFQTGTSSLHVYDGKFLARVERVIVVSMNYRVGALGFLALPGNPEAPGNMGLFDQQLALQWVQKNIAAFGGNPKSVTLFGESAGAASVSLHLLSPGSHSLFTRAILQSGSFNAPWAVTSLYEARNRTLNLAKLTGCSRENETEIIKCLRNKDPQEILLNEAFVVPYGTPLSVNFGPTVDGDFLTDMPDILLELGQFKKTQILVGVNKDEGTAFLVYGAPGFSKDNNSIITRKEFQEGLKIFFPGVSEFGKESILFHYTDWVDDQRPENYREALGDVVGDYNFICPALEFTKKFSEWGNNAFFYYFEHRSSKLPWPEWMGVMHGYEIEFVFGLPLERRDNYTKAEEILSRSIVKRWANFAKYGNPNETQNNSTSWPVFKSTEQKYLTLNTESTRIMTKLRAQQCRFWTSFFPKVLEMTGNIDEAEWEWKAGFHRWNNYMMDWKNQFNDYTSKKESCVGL

Structure (SMILES): Nc1c(-c2ccccc2)ncc2c1C(=O)c1c(-c3ccccn3)nn(-c3ccc(F)cc3F)c1C2=O
pIC50 [1]: 4.60

pIC50 [2]: 4.88 | pKd [3]: 4.68
Structure (SMILES): O=C1C=CC(=O)c2c1ccc1c2c(=O)oc2c3ccccc3ccc12

pIC50 [4]: 6.10
Structure (SMILES): O=C(O)c1cc(O)c2c(c1)[C@H]([C@@H]1c3cccc(O)c3C(=O)c3c(O)cc(C(=O)O)cc31)c1cccc(O)c1C2=O

MIC [5]: 4 µg/mL (≈ 9.9 µM)
Structure (SMILES): NC1=C(NC(=O)Cn2cc(CCBr)nn2)C(=O)c2ccccc2C1=O

Structure (SMILES): Cc1cc(O)c2c(=O)c3c(O)cc(O)c4c5c(O)cc(O)c6c(=O)c7c(O)cc(C)c8c1c2c(c34)c(c78)c65 [HYPERICIN]
pIC50 [4]: 5.52

MIC [5]: 4 µg/mL (≈ 10.2 µM)
Structure (SMILES): NC1=C(NC(=O)Cn2cc(CC3CCCCC3)nn2)C(=O)c2ccccc2C1=O

pIC50 [4]: 5.22
Structure (SMILES): O=C1c2c(O)ccc(O)c2C(=O)c2c(O)ccc(O)c21

Structure (SMILES): CC(C)=CCC(OC(=O)CCC(=O)Nc1ccc(Oc2ccccc2)cc1)C1=CC(=O)c2c(O)ccc(O)c2C1=O (stereo not drawn)
pIC50 [6]: 5.42 | pIC50 [7]: 5.39 | pIC50 [8]: 5.39

pIC50 [9]: 6.09
Structure (SMILES): O=C1C=C(Nc2ccc3cnccc3c2)c2ccccc2C1=O

pIC50 [10]: 5.57 | pIC50 [11]: 5.66 | pIC50 [12]: 5.72
Structure (SMILES): CC(=O)c1ccccc1NC1=CC(=O)c2ncncc2C1=O

Structure (SMILES): Nc1c(-c2cccnc2)ncc2c1C(=O)c1c(-c3ccccn3)nn(-c3ccc(F)cc3F)c1C2=O
pIC50 [1]: 4.60

Structure (SMILES): CC1=C(NC2CCN(Cc3ccccc3)CC2)C(=O)c2ccccc2C1=O
pIC50 [13]: 7.02

Structure (SMILES): C[C@@]12CCC(=O)c3coc(c31)C(=O)c1cc3c(cc12)C(=O)C=CC3=O [HELENAQUINONE]
pIC50 [14]: 5.84
